Tests used:
BcsE = BcsE (Escherichia coli, UniProt P37657); experiment: equilibrium dialysis with purified MBP-BcsE; format: binding
YcgR = molecular target: T1, YcgR (Escherichia coli, UniProt P76010); experiment: […]-c-di-GMP DRaCALA with cell lysates, competed by unlabeled c-di-GMP; format: cell-based
T1 sequence (P76010 1-244): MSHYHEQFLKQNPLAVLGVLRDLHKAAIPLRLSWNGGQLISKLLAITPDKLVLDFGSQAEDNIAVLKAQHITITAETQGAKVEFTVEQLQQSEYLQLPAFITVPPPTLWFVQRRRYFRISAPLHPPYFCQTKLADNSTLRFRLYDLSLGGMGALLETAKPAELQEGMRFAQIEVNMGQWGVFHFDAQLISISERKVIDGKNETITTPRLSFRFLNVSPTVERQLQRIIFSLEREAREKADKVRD

Sequence of BcsE (P37657 whole entry): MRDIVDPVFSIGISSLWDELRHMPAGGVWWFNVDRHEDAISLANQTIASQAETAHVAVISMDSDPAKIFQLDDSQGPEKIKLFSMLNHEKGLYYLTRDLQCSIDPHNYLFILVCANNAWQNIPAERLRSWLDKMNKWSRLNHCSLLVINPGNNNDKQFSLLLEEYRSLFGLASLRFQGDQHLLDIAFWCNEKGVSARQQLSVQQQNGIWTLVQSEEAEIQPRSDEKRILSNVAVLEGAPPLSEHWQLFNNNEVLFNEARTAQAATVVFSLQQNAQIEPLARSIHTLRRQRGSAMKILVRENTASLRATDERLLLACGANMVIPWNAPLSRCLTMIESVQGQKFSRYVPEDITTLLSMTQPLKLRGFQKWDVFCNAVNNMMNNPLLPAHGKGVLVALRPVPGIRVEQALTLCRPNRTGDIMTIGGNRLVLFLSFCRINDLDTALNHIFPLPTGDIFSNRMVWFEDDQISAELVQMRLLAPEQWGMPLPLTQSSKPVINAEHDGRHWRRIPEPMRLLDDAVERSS

`Nc1nc2c(ncn2[C@@H]2O[C@@H]3COP(=O)(O)O[C@H]4[C@@H](O)[C@H](n5cnc6c(=O)[nH]c(N)nc65)O[C@@H]4COP(=O)(O)O[C@H]3[C@H]2O)c(=O)[nH]1` [c-di-GMP] was tested, and the Kd (BcsE) was 2420 nM and the “33P-c-di-GMP DRaCALA with cell lysates, competed by unlabeled c-di-GMP” value (YcgR) was “Only the YcgR and Clp lysates produced positive signals (Fig. 1B)”.
